This passage reports IC50 results from US20250179061A1 (SIRONAX LTD., priority 2022, published 2025).

Like-named read-outs stand apart in the source and are kept apart here.

This test has as its system HT-29 cells. Nature of the test: HT-29 necroptosis cell viability assay (TNF-α/SMAC mimetic/zVAD-FMK, CellTiter-Glo). In kind it is cell-based. In outline:
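Necroptosis was triggered by TNF-α (10 ng/ml), SMAC mimetic (6 μM) and zVAD-FMK (10 μM) in serum-free medium during 20 h compound exposure (10 concentrations, threefold steps) of HT-29 cells. IC50 from duplicate dose-responses uses CellTiter-Glo ATP luminescence as viability read-out.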

The mark [1] stands for this setting: Homo sapiens, HT-29 cells stimulated with TNF-α (10 ng/ml), SMAC mimetic (6 μM) and zVAD-FMK (10 μM), 20 hours, CellTiter-Glo ATP luminescence, geometric mean IC50 from 10 points, read-out: Activity.
Where [2] appears, read: Homo sapiens, HT-29, HT-29 necroptosis cell viability, IC50 class symbols, read-out: Activity.
The mark [3] stands for this setting: Homo sapiens, HT-29, HT-29 necroptosis cell viability assay, class symbols for IC50, read-out: Activity.

As to `O=c1n(-c2ccc(Oc3cc(Cl)ncc3F)c(F)c2)nc2n1C(c1ccccc1)CC2` (centres unmarked) [Example 12, 2-(4-((2-chloro-5-fluoropyridin-4-yl)oxy)-3-fluorophenyl)-5-phenyl-2,5,6,7-tetrahydro-3H-pyrrolo[2,1-c][1,2,4]triazol-3-one], the IC50 under setting [1] is < 100 nM. For `CCOC1CN(c2nccc(Oc3ccc(-n4ncn(Cc5c(F)cccc5F)c4=O)cc3)c2N)C1` [Example 409, 2-(4-((3-amino-2-(3-ethoxyazetidin-1-yl)pyridin-4-yl)oxy)phenyl)-4-(2,6-difluorobenzyl)-2,4-dihydro-3H-1,2,4-triazol-3-one], the IC50 under setting [2] lay in the range of 100 to 1000 nM.

Take `Cc1nc(N2CC(OC3CC3)C2)sc1Oc1ccc(-n2ncn(Cc3c(F)cccc3F)c2=O)cc1` [Example 47, 2-(4-((2-(3-cyclopropoxyazetidin-1-yl)-4-methylthiazol-5-yl)oxy)phenyl)-4-(2,6-difluorobenzyl)-2,4-dihydro-3H-1,2,4-triazol-3-one]: the IC50 under setting [1] was < 100 nM. On the same count and under the same terms, for `Cc1nc(C2(O)CC(OCc3ccccc3)C2)sc1Oc1ccc(-n2ncn(Cc3c(F)cccc3F)c2=O)cc1F` (centres unmarked) [Example 112, 2-(4-((2-(3-(benzyloxy)-1-hydroxycyclobutyl)-4-methylthiazol-5-yl)oxy)-3-fluorophenyl)-4-(2,6-difluorobenzyl)-2,4-dihydro-3H-1,2,4-triazol-3-one] the value was 100 to 1000 nM.

In the case of `Cc1cccnc1Cn1cnn(-c2ccc(Oc3sc(C(C)(C)O)nc3C)c(F)c2)c1=O` [Example 464, 2-(3-fluoro-4-((2-(2-hydroxypropan-2-yl)-4-methylthiazol-5-yl)oxy)phenyl)-4-((3-methylpyridin-2-yl)methyl)-2,4-dihydro-3H-1,2,4-triazol-3-one], the IC50 under setting [2] is 100 to 1000 nM. With `Cc1nc(C#N)sc1Oc1ccc(-n2ncn(Cc3ncccc3Cl)c2=O)cc1F` [Example 37, 5-(4-(4-((3-chloropyridin-2-yl)methyl)-5-oxo-4,5-dihydro-1H-1,2,4-triazol-1-yl)-2-fluorophenoxy)-4-methylthiazole-2-carbonitrile], the IC50 under setting [1] is < 100 nM. Consider `O=c1n(Cc2c(F)cccc2F)cnn1-c1ccc(Oc2nc3c(s2)CCCC3)cc1` [Example 83, 4-(2,6-difluorobenzyl)-2-(4-((4,5,6,7-tetrahydrobenzo[d]thiazol-2-yl)oxy)phenyl)-2,4-dihydro-3H-1,2,4-triazol-3-one], for which the IC50 under setting [1] was in the range of 100 to 1000 nM.

Regarding `Cc1nc(C(C)(C)O)sc1Oc1ccc(-n2ncn(Cc3cc(F)ccc3F)c2=O)cc1F` [Example 470, 4-(2,5-difluorobenzyl)-2-(3-fluoro-4-((2-(2-hydroxypropan-2-yl)-4-methylthiazol-5-yl)oxy)phenyl)-2,4-dihydro-3H-1,2,4-triazol-3-one], under setting [2], the IC50 is < 100 nM. Turning to `CC(C)(C)Nc1cc(Oc2ccc(-n3ncn(Cc4c(F)cccc4F)c3=O)cc2)ccn1` [Example 387, 2-(4-((2-(tert-butylamino)pyridin-4-yl)oxy)phenyl)-4-(2,6-difluorobenzyl)-2,4-dihydro-3H-1,2,4-triazol-3-one], the IC50 under setting [2] lay in the range of 100 to 1000 nM. With `CCOC1CN(c2cc(Oc3ccc(-n4ncn(Cc5c(F)cccc5F)c4=O)cc3F)c(F)cn2)C1` [Example 364, 4-(2,6-difluorobenzyl)-2-(4-((2-(3-ethoxyazetidin-1-yl)-5-fluoropyridin-4-yl)oxy)-3-fluorophenyl)-2,4-dihydro-3H-1,2,4-triazol-3-one], the IC50 under setting [2] was < 100 nM.

On to `NC1CC2(C1)CC(Nc1cc(Oc3ccc(-n4ncn(Cc5c(F)cccc5F)c4=O)cc3)ccn1)C2` (centres unmarked) [Example 332, 2-(4-((2-((6-aminospiro[3.3]heptan-2-yl)amino)pyridin-4-yl)oxy)phenyl)-4-(2,6-difluorobenzyl)-2,4-dihydro-3H-1,2,4-triazol-3-one], for which, under setting [2], the IC50 fell in the range of 100 to 1000 nM. With `Cc1cc(C(N)=O)sc1Oc1ccc(-n2nc3n(c2=O)[C@H](c2ccccc2)CC3)cc1F` (single isomer, unassigned) [Example 689], the IC50 under setting [1] was < 100 nM. For the compound `CC1CCN(c2cc(Oc3ccc(-n4ncn(Cc5c(F)cccc5F)c4=O)cc3)ccn2)C1` (centres unmarked) [Example 337, 4-(2,6-difluorobenzyl)-2-(4-((2-(3-methylpyrrolidin-1-yl)pyridin-4-yl)oxy)phenyl)-2,4-dihydro-3H-1,2,4-triazol-3-one], the IC50 under setting [2] was < 100 nM. Regarding `Cn1ncnc1Oc1ccc(-n2ncn(Cc3c(F)cccc3F)c2=O)cc1` [Example 94, 4-(2,6-difluorobenzyl)-2-(4-((1-methyl-1H-1,2,4-triazol-5-yl)oxy)phenyl)-2,4-dihydro-3H-1,2,4-triazol-3-one], the IC50 under setting [1] was in the range of 1000 to 10000 nM. Consider `N#C[C@H]1CCN(c2cc(Oc3ccc(-n4ncn(Cc5c(F)cccc5F)c4=O)cc3)ccn2)C1` [Example 401, (S)-1-(4-(4-(4-(2,6-difluorobenzyl)-5-oxo-4,5-dihydro-1H-1,2,4-triazol-1-yl)phenoxy)pyridin-2-yl)pyrrolidine-3-carbonitrile], for which the IC50 under setting [2] was < 100 nM. `CC1(C#N)CN(c2cc(Oc3ccc(-n4ncn(Cc5c(F)cccc5F)c4=O)cc3F)c(Cl)cn2)C1` [Example 257, 1-(5-chloro-4-(4-(4-(2,6-difluorobenzyl)-5-oxo-4,5-dihydro-1H-1,2,4-triazol-1-yl)-2-fluorophenoxy)pyridin-2-yl)-3-methylazetidine-3-carbonitrile]: under setting [2], the IC50 was < 100 nM.

As for `Cc1nc(N2CC(N)(C(F)F)C2)sc1Oc1ccc(-n2ncn(Cc3c(F)cccc3F)c2=O)cc1F` [Example 450, 2-(4-((2-(3-amino-3-(difluoromethyl)azetidin-1-yl)-4-methylthiazol-5-yl)oxy)-3-fluorophenyl)-4-(2,6-difluorobenzyl)-2,4-dihydro-3H-1,2,4-triazol-3-one], under setting [2], the IC50 was < 100 nM. Turning to `O=c1n(-c2ccc(Oc3ccccc3)cc2)nc2n1C(c1ccccc1)CC2` (centres unmarked) [Example 428, 2-(4-phenoxyphenyl)-5-phenyl-2,5,6,7-tetrahydro-3H-pyrrolo[2,1-c][1,2,4]triazol-3-one], the IC50 under setting [2] is < 100 nM. Same read-out and setting: for `N#Cc1cc(Oc2ccc(-n3ncn(Cc4c(F)cccc4F)c3=O)cc2F)c(Cl)cn1` [Example 406, 5-chloro-4-(4-(4-(2,6-difluorobenzyl)-5-oxo-4,5-dihydro-1H-1,2,4-triazol-1-yl)-2-fluorophenoxy)picolinonitrile] the value was < 100 nM. As for `CCOC1CN(c2ncc(Oc3ccc(-n4ncn(Cc5c(F)cccc5F)c4=O)cc3)s2)C1` [Example 84, 4-(2,6-difluorobenzyl)-2-(4-((2-(3-ethoxyazetidin-1-yl)thiazol-5-yl)oxy)phenyl)-2,4-dihydro-3H-1,2,4-triazol-3-one], the IC50 under setting [1] was < 100 nM.

On to `Cc1nc(C(N)=O)sc1Oc1ccc(-n2ncn(Cc3ncccc3Cl)c2=O)cc1F` [Example 590, 5-(4-(4-((3-chloropyridin-2-yl)methyl)-5-oxo-4,5-dihydro-1H-1,2,4-triazol-1-yl)-2-fluorophenoxy)-4-methylthiazole-2-carboxamide], for which the IC50 under setting [3] was < 100 nM.

On to `Cc1nc(C(N)=O)sc1Oc1ncc(-n2nc3n(c2=O)[C@H](c2ccccc2)CC3)cc1Cl` (single isomer, unassigned) [Example 640], for which the IC50 (Homo sapiens, HT-29, HT-29 cells, necroptosis induced by TNF-α/SMAC mimetic/zVAD-FMK, CellTiter-Glo, read-out: Activity (IC50 class)) was < 100 nM. In the case of `Cc1nc(N2CC(C)(N)C2)sc1C(C)c1ccc(-n2ncn(Cc3c(F)cccc3F)c2=O)cc1` (centres unmarked) [Example 513, 2-[4-[1-[2-(3-amino-3-methyl-azetidin-1-yl)-4-methyl-thiazol-5-yl]ethyl]phenyl]-4-[(2,6-difluorophenyl)methyl]-1,2,4-triazol-3-one; 2,2,2-trifluoroacetic acid], the IC50 under setting [3] lay within 100 to 1000 nM. With `C[C@H]1C[C@@H](C#N)CN1c1cc(Oc2ccc(-n3ncn(Cc4c(F)cccc4F)c3=O)cc2F)c(Cl)cn1` [Example 240, (3R,5S)-1-(5-chloro-4-(4-(4-(2,6-difluorobenzyl)-5-oxo-4,5-dihydro-1H-1,2,4-triazol-1-yl)-2-fluorophenoxy)pyridin-2-yl)-5-methylpyrrolidine-3-carbonitrile], the IC50 under setting [2] was < 100 nM.

With `O=c1n(Cc2c(F)cccc2F)cnn1-c1ccc(Oc2ccnc(N3CC4(CCNCC4)C3)c2)cc1` [Example 380, 2-[4-[[2-(2,7-diazaspiro[3.5]nonan-2-yl)-4-pyridyl]oxy]phenyl]-4-[(2,6-difluorophenyl)methyl]-1,2,4-triazol-3-one], the IC50 under setting [2] is 100 to 1000 nM. On to `O=c1n(Cc2c(F)cccc2F)cnn1-c1ccc(Oc2ccnc(N3CCC34CCC4)c2)cc1` [Example 498, 2-(4-((2-(1-azaspiro[3.3]heptan-1-yl)pyridin-4-yl)oxy)phenyl)-4-(2,6-difluorobenzyl)-2,4-dihydro-3H-1,2,4-triazol-3-one], for which the IC50 under setting [3] fell in the range of 100 to 1000 nM. Turning to `Cc1nc(N2C[C@@H](N)[C@@H]2C)sc1Oc1ccc(-n2ncn(Cc3c(F)cccc3F)c2=O)cc1` [Example 72, 2-(4-((2-((2S,3R)-3-amino-2-methylazetidin-1-yl)-4-methylthiazol-5-yl)oxy)phenyl)-4-(2,6-difluorobenzyl)-2,4-dihydro-3H-1,2,4-triazol-3-one], the IC50 (HT-29 cells stimulated with TNF-α (10 ng/ml), SMAC mimetic (6 μM) and zVAD-FMK (10 μM), 20 hours, CellTiter-Glo ATP luminescence, geometric mean IC50 from 10 points, read-out: Activity) was < 100 nM.

Take `CC(=O)Nc1nc(C)c(Oc2ccc(-n3ncn(Cc4c(F)cccc4F)c3=O)cc2F)s1` [Example 89, N-(5-(4-(4-(2,6-difluorobenzyl)-5-oxo-4,5-dihydro-1H-1,2,4-triazol-1-yl)-2-fluorophenoxy)-4-methylthiazol-2-yl)acetamide]: under setting [1], the IC50 is < 100 nM. `Cc1nn(-c2ccc(S(=O)(=O)N3CCN(CC4CCC4)CC3)cc2)c(=O)n1Cc1ccccc1` [Example 624]: under setting [3], the IC50 lay within 1000 to 10000 nM.
